Data as given in patent publication US20180318291A1, “USE OF AMINOTHIAZOLE MYD88 SPECIFIC INHIBITOR TJM2010-5” (WUHAN INNAMUNE PHARMACEUTICAL INC. LTD., priority 2015, published 2018).

What was measured:
Balb/c mice = assay: AOM/DSS chronic colitis and colitis-associated colorectal cancer (CAC) model; assay type: in vivo
Protocol: Construct the chronic colitis and colitis-associated colorectal cancer (CAC) model: apply intraperitoneal injection of 10 mg/Kg azoxymethane (AOM) (Sigma-Aldrich Chemical) to 40Balb/c mice, and start to execute three cycles of feeding of drinking water containing 2.5% of dextran sodium sulfate (DSS) (MP Biomedicals) 7 days later, and each cycle consists one week of feeding DSS water and two weeks of feeding common fresh water. Then, observe them in the following 10 weeks. […] 100% of mice in this group have colorectal cancer.
TJM2010-5 treatment group: Provide intragastric administration of TJM2010-5 of 50 mg/kg to 20 Balb/c mice in two days before providing the treatment mentioned above, and observe them in ten weeks.
Mechanism study: Take the specimen of serum, colon, and spleen etc. from 4 mice in each group 2 weeks and 7 weeks later to detect the infiltration of IRAK4 and inflammatory cytokines, macrophage and Gr-1^highCD11b^high MDSC, and the proportion of LPMCs (lamina propria mononuclearcells) F4/80^+CD11b^+ macrophage etc.
The experimental procedure is the same with that of the experiment on effect of TJM2010-5 in preventing and treating colitis and colorectal cancer: Apply intragastric administration of TJM2010-1, TJM2010-2, TJM2010-3, TJM2010-4, TJM2010-5 of 50 mg/kg to 20 Balb/c mice in each group of totally 6 groups, and then, observe them in the following 10 weeks. The mice with colitis and colorectal cancer in the group corresponding to TJM2010-5 and TJM2010-1, TJM2010-2, TJM2010-3, TJM2010-4, TJM2010-5 accounts 0%, 71.52%, 42.28%, 60.19%, 81.34% respectively; 2. TJM2010-5 can 100% prevent and cure chronic colitis and prevent the colorectal cancer incurred by chronic colitis. […] Other aminothiazole compound has no or little such curative effect.

[1] = tested on: C57bl/6 mice lymphocytes with Bal b/c DC; assay: mixed lymphocyte culture, T cell proliferation after CpG stimulated DC activation; assay type: cell-based; conditions: 10, 20, 40 μM, third day, FIG. 8
Protocol: 1. Take the thigh bone of Bal b/c mice, separate the bone marrow cell and add the GMS-CSF and IL-4 cytokines to cultivate marrow-derived DC.
2. Cultivate them until the sixth day, and dissociate the cells to remove immature DC. Conduct centrifugation and suspend them with 1640 medium.
3. Add mitomycin (to let the final concentration up to 50 μg/ml), and conduct water bath at 37° C. for 15 min Wash in 1640 medium and count.
4. Take the spleen of C57bl/6 mice, separate splenic lymphocytes with separating medium of mice lymphocytes and count.
5. Take the splenic lymphocytes of C57bl/6 mice and label CFSE.
6. Mix DC derived from Bal b/c and C57bl/6 mice lymphocytes for the mixed lymphocyte culture. And the grouped as follows:
Control group: Add CPG other than TJM2010-5 in the process of mixed lymphocyte culture.
Experiment group 1: Add CPG and TJM2010-5 in the process of mixed lymphocyte culture, where, the added TJM2010-5 is 10 μM.
Experiment group 2: Add CPG and TJM2010-5 in the process of mixed lymphocyte culture, where, the added TJM2010-5 is 20 μM.
Experiment group 3: Add CPG and TJM2010-5 in the process of mixed lymphocyte culture, where, the added TJM2010-5 is 40 μM.
1. Cultivate them until the third day, collect cells and detect the proliferation of C57bl/6 mice lymphopoiesis with flow cytometer.

DC = assay: CD80/CD86 expression on bone marrow DC by flow cytometry; assay type: cell-based, mice
Protocol: 1. Derive the bone marrow cell from the BALB/c mice administrated with TJM2010-5, destruct the red blood cell, and place them into the RPMI1640 medium with the concentration of 2×10^6/ML (adding GM-CSF of 10 ng/ml, IL-4 of 10 ng/ml);
2. Remove the suspension cell 48 hours later, and collect the suspension and anchorage-dependent cell on day 6.
3. Place DCs into […] of TJM2010-5 for cultivating for 1 hour, add necrotic myocardium supernate, LPS (200 ng/ml), Poly I:C (20 mg/ml), CpG (10 mg/ml) to cultivate the cells for 12 hours.
4. Add the flow antibody FITC to label anti-CD80, CD86, and conduct detection with machine.
(§1) DC: Place the cells into a 48-pore plate, the number of cells is 1×10^6/pore, and 1 ml of medium system is added to each pore. Firstly, add TJM2010-5 of different concentration gradients to pre-incubate the cells for 2 h, then, add the LPS to get the final concentration of 1 ug/ml, and then incubate them in CO2 incubator at 37° C. for one night (12 h).
(§2) Add the flow antibody FITC to label anti-CD80, CD86, and conduct detection with machine.

RAW264.7 cell = assay: CD80 expression on RAW264.7 (macrophage) cells by flow cytometry; assay type: cell-based
Protocol: TJM2010-5 can inhibit the up-regulation of RAW264.7 cell on costimulatory molecules CD80 caused by TLR stimulant (LPS, CpG), which means that TJM2010-5 can effectively block the TLR signal pathway, thus to inhibit the cells' immune reaction.
as §1, with “Raw264.7: Place” for “DC: Place”, “is 9×10^5/pore,” for “is 1×10^6/pore,”, “the CPG” for “the LPS”, “of 40” for “of 1”, “h). Add the flow antibody FITC to label anti-CD80, CD86, and conduct detection with machine;” for “h).”
as §2

O=C(CCN1CCN(Cc2ccccc2)CC1)Nc1nc(-c2ccccc2)cs1 [TJM2010-5, 3-(4-benzylpiperazin-1-yl)-N-(4-phenylthiazol-2-yl) propanamide]
colitis finding (Balb/c mice; 50 mg/kg intragastric): No apparent colitis
mice with colitis and colorectal cancer (Balb/c mice; 50 mg/kg intragastric, 20 Balb/c mice per group, observed 10 weeks): 0%
weights vs untreated group (Balb/c mice; 50 mg/kg intragastric, FIG. 12A): obviously higher than that of untreated group
survival rate vs control group (Balb/c mice; 50 mg/kg intragastric, FIG. 12B): obviously higher than that of control group
mice having colitis and colorectal cancer (Balb/c mice; FIG. 12C): no mice
activation of IRAK4 (Balb/c mice; FIG. 13A): inhibit
p-IRAK4 (Balb/c mice; FIG. 13A): reduce
activation of NF-κB p65 (Balb/c mice; FIG. 13B): inhibit
generation of G-CSF vs control group (Balb/c mice; FIG. 13C): obviously lower than those of control group
generation of IL-6 vs control group (Balb/c mice; FIG. 13C): obviously lower than those of control group
generation of MIP-1β vs control group (Balb/c mice; FIG. 13C): obviously lower than those of control group
generation of TGF-β1 vs control group (Balb/c mice; FIG. 13C): obviously lower than those of control group
generation of TNF-α vs control group (Balb/c mice; FIG. 13C): obviously lower than those of control group
level of IL-6 mRNA vs control group (Balb/c mice; FIG. 13D): obviously lower than those of control group
level of TGF-β1 mRNA vs control group (Balb/c mice; FIG. 13D): obviously lower than those of control group
infiltration of macrophage (Balb/c mice; FIG. 14): reduce
F4/80+CD11b+ tumor-associated macrophage in LPMCs (Balb/c mice; FIG. 14B): reduces
infiltration of Gr-1highCD11bhigh MDSC (myeloid suppressor cells) (Balb/c mice; FIG. 14C): reduce
expression of IL-6 (Balb/c mice; FIG. 14D): reduce
prevention and cure of chronic colitis and prevention of colorectal cancer (Balb/c mice; intragastric): 100%
proliferation in T cells with increasing TJM2010-5 [1]: reduces
up-regulation of costimulatory molecules CD80/CD86 incurred by LPS, CpG (DC): inhibit up-regulation
expression of CD80 on DC surface (DC; DC, 2 h pre-incubation, LPS 1 ug/ml, 12 h, FIG. 3c): concentration-dependent inhibition
CD80 expression on DC stimulated by LPS, CPG, cardiac tissue homogenate (DC; FIG. 3b): down-regulate
up-regulation of costimulatory molecule CD80 caused by TLR stimulant (LPS, CpG) (RAW264.7 cell; RAW264.7 cell): inhibit
expression of CD80 on macrophage surface (RAW264.7 cell; Raw264.7, 2 h pre-incubation, CPG 40 ug/ml, 12 h, FIG. 3d): concentration-dependent inhibition
